Blank lines part the entries; values can stand above or below the molecule they belong to. Where a SMILES comes first, the peptide text is derived from it. The star is where a group is joined. Cbz = O=C(OCc1ccccc1)*
Columns and labels:
NAT10 = target: T1, NAT10 (Homo sapiens, UniProt Q9H0A0); assay: NAT10 degradation in SiHa cells, Western blot; format: cell-based; conditions: SiHa cells; for effect of cotreatment on NP1192-mediated degradation of NAT10: inhibitor 200 nM for 12 h, then NP1192 for 36 h
T1 construct: depletion of total NAT10 protein in SiHa (human) and U14 (murine) CCa cell lines; endogenous in cells; host or cells: SiHa (human cervical cancer cell line)
T1 sequence (Q9H0A0 1-1025): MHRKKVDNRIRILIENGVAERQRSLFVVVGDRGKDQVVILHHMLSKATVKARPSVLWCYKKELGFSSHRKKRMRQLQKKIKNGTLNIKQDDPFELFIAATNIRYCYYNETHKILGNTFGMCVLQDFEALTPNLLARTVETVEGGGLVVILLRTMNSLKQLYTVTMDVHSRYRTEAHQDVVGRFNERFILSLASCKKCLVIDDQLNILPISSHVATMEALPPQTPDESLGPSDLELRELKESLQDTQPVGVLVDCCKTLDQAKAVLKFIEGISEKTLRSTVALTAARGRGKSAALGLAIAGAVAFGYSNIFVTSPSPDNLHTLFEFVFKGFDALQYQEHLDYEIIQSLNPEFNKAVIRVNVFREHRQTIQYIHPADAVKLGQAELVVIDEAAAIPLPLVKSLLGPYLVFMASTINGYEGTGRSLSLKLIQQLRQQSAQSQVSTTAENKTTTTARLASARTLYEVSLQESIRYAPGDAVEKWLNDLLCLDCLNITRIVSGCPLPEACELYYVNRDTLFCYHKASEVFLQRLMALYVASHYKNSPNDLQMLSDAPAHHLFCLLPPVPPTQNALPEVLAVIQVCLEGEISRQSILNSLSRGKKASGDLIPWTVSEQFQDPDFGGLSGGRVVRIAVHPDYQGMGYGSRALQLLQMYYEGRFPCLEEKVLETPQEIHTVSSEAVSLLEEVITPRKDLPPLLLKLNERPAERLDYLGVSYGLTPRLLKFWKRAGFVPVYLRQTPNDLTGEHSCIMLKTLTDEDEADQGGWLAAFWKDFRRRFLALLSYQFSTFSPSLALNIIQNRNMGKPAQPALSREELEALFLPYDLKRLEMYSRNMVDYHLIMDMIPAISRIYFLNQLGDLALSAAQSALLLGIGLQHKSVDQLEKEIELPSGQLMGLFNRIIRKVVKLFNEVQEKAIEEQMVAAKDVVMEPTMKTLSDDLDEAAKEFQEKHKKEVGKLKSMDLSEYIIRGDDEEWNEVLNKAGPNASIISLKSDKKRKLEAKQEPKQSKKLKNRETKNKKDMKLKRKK
Experimental: The human CCa cell line SiHa and the normal epithelial foreskin fibroblast line HFF-1 were purchased from the Cell Bank of the Chinese Academy of Sciences. Additionally, murine cervical carcinoma cell line U14 (RRID:CVCL_9U56) was purchased from Boster Company. HFF-1 and U14 cells were cultured in Dulbecco’s modified Eagle’s medium (DMEM) (Gibco, USA) supplemented with 10% heat-inactivated fetal bovine serum (FBS; Gibco, USA), while SiHa cells were incubated in RPMI 1640 medium (Gibco, USA) in a humid atmosphere with 5% CO2 at 37 °C. For hypoxia exposure, the cells were incubated in a sealed culture tank containing 5% CO2 and 0.1% O2 (MGC, Japan) for 36 h.
RIPA lysis buffer (Beyotime, China) mixed with 1% protease inhibitor (Sigma, US) was added to the cells, and a sample of total protein was obtained and then loaded onto an 8% or 12% polyacrylamide gel. The gel was placed in a buffer solution, and an electric current was applied. The separated proteins were subsequently transferred from the gel onto a PVDF membrane. Next, the membrane was blocked with 5% milk for 1 h to prevent nonspecific antibody binding. The membranes were subsequently incubated with anti-NAT10 (1:1000, Abcam, USA), anti-PD-L1 (1:1000, Proteintech, China), anti-HIF-1α (1:1000, Abmart, China), and anti-β-tubulin (1:1000, Proteintech, China) primary antibodies for 12 h. Afterward, the membrane was sequentially washed with 1× TBST and incubated for 1 h with an antimouse secondary antibody (1:6000, Elabscience, China) or antirabbit secondary antibody (1:6000, Elabscience, China). The target proteins were detected via chemiluminescence with a ChemiDoc MP Imaging System (Bio-Rad, US).

SiHa cells [1] = assay: SiHa cell viability IC50 (CCK-8); format: cell-based, human; conditions: Homo sapiens; parental SiHa cells, 36 h; read-out: IC50, inhibition of SiHa cell viability
Experimental: NAT10^± SiHa cells and SiHa cells treated with DMSO, Remodelin or NP1192 for 36 h were seeded into the wells of a 96-well microplate at identical densities of 2000 or 3000 cells per well. After the cells adhered to the well surface, 110 μL of a 1:10 mixture of CCK-8 reagent (Meilunbio, China) and RPMI 1640 medium was added to each well. The microplate was then incubated for another 2 h in the incubator, and the mixture was replaced with an equal volume of medium. A microplate reader (BioTek, US) was used to measure the absorption at a wavelength of 450 nm.

[2] = system: Remodelin^Resist SiHa cells; assay: IC50 and resistance index in Remodelin-resistant SiHa cells (CCK-8); format: cell-based, human
Experimental: We generated Remodelin-resistant (Remodelin^Resist SiHa) and NP1192-resistant (NP1192^Resist SiHa) SiHa CCa cell lines by applying a stepwise dose escalation strategy, as previously described in the literature. To quantitatively assess resistance, we calculated the resistance index for each subline following the established methodologies. Briefly, 3000 cells per well were seeded in 96-well plates and treated with increasing concentrations of Remodelin or NP1192 (0, 10, 50, 100, and 150 μM) for 24 h. Following treatment, 10 μL of CCK-8 reagent was added to each well and incubated for an additional 2 h. Absorbance at 490 nm was measured, and the IC50 values were calculated using GraphPad Prism 9.0. The RI was defined as the ratio of the IC50 in resistant cells to that in parental cells.

SiHa cells [3] = assay: Colony formation assay in SiHa cells; format: cell-based, human; conditions: pretreated 20 μM 36 h, 2 weeks
Experimental: NAT10^± SiHa cells and SiHa cells treated with DMSO, Remodelin or NP1192 for 36 h were seeded into the wells of a 6-well microplate at identical densities of 2000 or 3000 cells per well. The cells were then incubated in the incubator for at least 2 weeks to form colonies. After the incubation period, the cells were fixed with formalin and then stained with crystal violet. The colonies were then counted via a microscope. The number and size of the colonies in the experimental groups were compared.

[4] = system: CD8+ TILs, M2 macrophages, MDSCs and Treg cells in U14 xenograft tumors; conditions: Figure 7A
Experimental: U14 cells (1 × 10^7 cells per mouse, approximately 100–150 μL of cell suspension) were implanted subcutaneously into the lateral lower dorsal surface of each mouse. The tumors were allowed to grow for 7 days, and the mice were then administered one of five treatments (group 1: U14 cells + DMSO; group 2: U14 cells + Remodelin; group 3: U14 cells + anti-PD-L1 antibody; group 4: U14 cells + NP1192; group 5: U14 cells + anti-PD-L1 antibody + NP1192). Each group of mice was assigned according to the principles of randomization and the blinding method. Tumors were measured every 2 days, and tumor volume was calculated via the following equation: volume = (width)^2 × length/2. Remodelin and NP1192 were injected into the peritumoral area every 2 days at a dose of 25 mg/kg, and the in vivo antimouse PD-L1 antibody (low endotoxin) was injected every 3 days at a dose of 2.5 mg/kg.
After the mice were euthanized, the tumor and peritumoral tissues were analyzed with an immunoflow kit (BioLegend, USA). The antibodies used for immunoflow cytometry included antihuman/mouse antibodies specific for CD11b-BV711, F4/80-AF647, CD206-PE, CD86-BV605, CD4-CD4-FITC IL-17-17-CY7/CY7, CD25-PE, FOXP3-AF647, CD4-BV605, CD45-PE/CY7, CD11b-BV711 and LY-6G/LY-6C-BV421 (BioLegend catalog no. 321239, RRID:AB_2860843). All data analyses were performed via GraphPad Prism 9, and the data are presented as the mean ± SEMs.

Compound: CC(C)C[C@@H](C=O)NC(=O)[C@H](CC(C)C)NC(=O)[C@H](CC(C)C)NC(=O)OCc1ccccc1 [MG132, reference compound] (Cbz-Leu-Leu-Leu-aldehyde)
effect of cotreatment on NP1192-mediated degradation of NAT10 (NAT10): significantly impeded

NAT10 degradation (NAT10; at 36 h, time course Figure 1G): 20%
NAT10 degradation rate (NAT10; panel TP1–32 at the same time and concentration, Figure 1E): 23%
Compound: N#Cc1ccc(-c2csc(N(CCCCC(=O)NCCCNc3cccc4c3C(=O)N(C3CCC(=O)NC3=O)C4=O)N=C3CCCC3)n2)cc1 (stereo not drawn) [NP1149]

Compound: N#Cc1ccc(-c2csc(NN=C3CCCC3)n2)cc1 [Remodelin, reference compound]
IC50 (SiHa cells [1]): 10.7 µM
resistance index (RI = IC50 resistant/parental SiHa) ([2]; 497.3/10.67): 46.60
IC50 ([2]; Homo sapiens, Remodelin^Resist SiHa cells): 497 µM
colony formation capacity (SiHa cells [3]): minimal suppressive effects
Treg gate ([4]; CD4+CD25+FOXP3+): 0.84%
M2 (M2 macrophages gate) ([4]; CD11b+F4/80+CD206+): 21.24%
MDSC gate ([4]; CD11b+LY-6G+): 58.69%
CD8+ (CD8+ TILs gate) ([4]; tumors after treatment): 0.56%

Compound: CO/C1=C\C(C)=C\[C@@H](C)[C@@H](O)[C@@H](C)C/C(C)=C/C=C/[C@H](OC)[C@@H]([C@@H](C)[C@@H](O)[C@H](C)[C@@]2(O)C[C@@H](O)[C@H](C)[C@@H](C(C)C)O2)OC1=O [bafilomycin A1, reference compound]
effect of cotreatment on NP1192-mediated degradation of NAT10 (NAT10): no discernible effect

Source: PMC12670317, “Targeted NAT10 Degradation by PROTAC NP1192 Suppresses Hypoxia-Adaptive Glycolysis and Reinvigorates CD8^+ Effector T‑Cell Function for Synergistic Cancer Immunotherapy” (ACS Central Science, 2025)
